Results taken from article PMC6290023 (Scientific Reports, 2018).
Peptide text beside a SMILES is read from it.

How the values were obtained:
[1] = Pharmacokinetics after intravenous injection 4 h after tMCAo (LC/MS/MS); format: in vivo; settings: mouse, i.v. 2 mg/ml, 10 ml/kg in 0.45% saline
Experimental: MHP1-Ac or MHP1-AcN (2 mg/ml, 10 ml/kg in 0.45% saline) was administered intravenously 4 hrs after tMCAo and mouse plasma was collected at 5 min, 10 min, 20 min, 30 min, 45 min, 1 h, and 2 h after injection. Mouse plasma (C57BL6J, 10 µL) and water/phosphoric acid (24:1, v/v) (Solution B, 500 µL) were mixed together to prepare the plasma samples. The samples (510 µL) were then analyzed using LC/MS/MS to determine MHP1-Ac or MHP1-AcN in plasma. Mouse brain was weighed and mixed with a 4-fold volume of solution B and the mixture was homogenized to prepare the brain samples. The specific gravity of solution B was assumed to be 1. The brain samples (10 µL) were analyzed using LC/MS/MS to determine MHP1-Ac or MHP1-AcN in brain. MHP1-Ac and MHP1-AcN, and MHP1-N (internal standard), in the plasma samples and brain samples, were extracted using Oasis HLB μElution Plate (Waters). Chromatographic analysis was performed on an InertSustain C18 (2.1 mm I.D. ×50 mm, 3 µm, GL Sciences) column using the mobile phase A, water/formic acid (1000:1, v/v), and the mobile phase B, acetonitrile/formic acid (1000:1, v/v).

[2] = test system: LPS-stimulated MG6 cells; experiment: Anti-inflammatory effect in LPS-stimulated MG6 cells (TNF-α / IL-6 ELISA); format: cell-based, mouse; settings: LPS-stimulated MG6 cells
Experimental: MG6 cells were obtained from RIKEN BRC (Tsukuba, Japan)[25],[26]. The MG6 cells were maintained in DMEM (Nakarai, Kyoto, Japan) supplemented with 10% FBS (Thermo Fisher Scientific, Waltham, MA, USA), 10 μg/ml insulin (Sigma-Aldrich, St. Louis, MO, USA) and 100 μM 2-mercaptoethanol (Sigma-Aldrich). These cells (1 × 10^5 cells) were plated in 96-well plastic culture dishes. After overnight incubation, the medium was replaced with DMEM supplemented with 4% FBS. LPS (Escherichia coli 0111: B4; Sigma-Aldrich, St. Louis, MO, USA) and MHP1 or modified MHP1 was added to the medium, which was then harvested at 24 h after stimulation. In the experiment checking the stability at 26 or 37 °C, MHP1-Ac or MHP1-AcN was incubated at 26 or 37 °C for 24 h before adding to the medium.
The concentrations of TNF-α and IL-6 were measured using commercially available ELISA kits: TNF-α, Quantikine Mouse TNF-α ELISA Kit (R&D systems); IL-6, Quantikine Mouse IL-6 ELISA Kit (R&D systems).

[3] = test system: LPS-stimulated MG6 cells; experiment: LDH assay in LPS-stimulated MG6 cells; format: cell-based, mouse
[4] = Dissolution in water and sedimentation in 0.45% saline at 37 °C for 24 h; format: physicochemical
Experimental: Synthetic MHP1 (NH2-[…]-COOH), MHP1-DN1 (NH2-LMVYVV-DLys-[…]-COOH), MHP1-DN2 (NH2-LMV-DTyr-[…]-COOH), MHP1-DN3 (NH2-L-DMet-[…]-COOH), MHP1-DC (NH2-LMVYVVKTSIKIPSSHNL-DMet-KGGSTKNWSGN-COOH), MHP1-Ac (Ac-[…]-COOH), MHP1-AcN (Ac-[…]-HN2), or MHP1-N (NH2-[…]-NH2) was purchased from ILS, Inc (Ibaraki, Tsukuba, Japan), dissolved in 1 or 2 mg/ml ddH2O and stored at 4 °C until use (Table 1).

[5] = test system: tMCAo model in mice; settings: cited from earlier work
Experimental: As we have previously shown that intravenous injection of MHP1 (150 μL, 2 mg/ml), started from 6 hrs after tMCAo and followed by subcutaneous injection with Alzet pump (200 μL, 2 mg/ml) for 24 h, is effective, we studied whether a lower dose of MHP1-AcN was effective in reducing ischemic injury.

[6] = test system: mouse osteoclast precursor cells; settings: cited from earlier work
Text: (§1) To solve this problem, we developed a novel peptide “microglial healing peptide1 (MHP1)”, which is a partial peptide of RANKL, to inhibit […] inflammation without activating osteoclast. The binding sites of RANKL for its receptor RANK responsible for osteoclastogenesis were not included in the MHP1 sequence, but other binding sites that are unrelated to osteoclastogenesis (DE and EF loops) were included. […] The sequence of MHP1 is “[…]” and we demonstrat ...

[7] = test system: TLR2, 7, 8; settings: cited from earlier work
Text: as §1

[8] = Stability of MHP1 in mouse serum (HPLC/MS); format: in vitro ADME; settings: mouse (CD-1(ICR)) serum, 200 μg/mL MHP1, 37 °C, HPLC UV 210 nm, mean ± SD
Experimental: Mouse (CD-1(ICR)) serum was obtained from KAC (Kyoto, Japan) and stored below −15 °C until use. MHP1 (2 mg/mL in ultrapure water) was spiked in mouse serum on ice to obtain a final concentration of 200 μg/mL. The serum was incubated at 37 °C and aliquots of the reaction mixture collected at the incubation times 0, 10, 30, and 60 min. Each aliquot was deproteinized with the addition of an ice-cold solvent (acetonitrile: methanol: acetic acid = 500:500:1). The mixtures were left at −20 °C for 20 minutes and stored on ice. After the addition of 1% acetic acid, the mixture was vigorously vortexed and centrifuged (12000 × g, 4 °C, 10 min). The supernatant was injected into the HPLC system and analyzed by reversed-phase chromatography with a water–acetonitrile (0.1% trifluoroacetic acid) linear gradient elution. MHP1 was detected by ultraviolet light at 210 nm.

[9] = test system: LPS-stimulated MG6 cells; settings: peptide incubated at 37 °C for 24 h; cited from earlier work
Experimental: This might be a result of the key sequence of MHP1 being preserved owing to N-terminus acetylation, which generally makes the peptide resistant to protease degradation. The difference in causing sedimentation at 37 °C for 24 h between MHP1-Ac and MHP1-AcN was dependent on the existence of C-terminal amidation, which has been reported to promote the stabilization of the secondary structure of the peptide.

[10] = test system: FeCl3-induced thrombosis model in CCA; experiment: FeCl3-induced thrombosis model in CCA, thrombolysis with tPA; format: in vivo; settings: mouse, tPA 10 mg/kg 30 min post-CCA occlusion
Experimental: The ischemic damage was evaluated at 48 h after MCAo in sections stained with cresyl violet. Coronal sections (12 μm thickness) were made at −1.4, −0.7, 0, 0.7 and 1.4 mm from the bregma, mounted on the stereomicroscope and photographed. The volume of the infarct was calculated by the sum of each area of all sections corrected by cerebral edema and multiplied by the thickness of the slices. In the experiment of tPA-induced hemorrhage, PE10-catheter was placed in the right internal jugular vein at 6 h after ischemia. The nylon suture was then removed and 10% of the MHP-AcN mixture (150 µg/mice) and tPA (10 mg/kg) were injected followed by continuous injection of residual mixture of MHP1-AcN and tPA using a syringe pump (UNIVENTOR 400 ANAESTHESIA UNIT, ZTN, MALTA). In the experiment of FeCl3 -induced thrombosis model in CCA, a piece of filter paper soaked in 7.5% FeCl3 was placed on the right CCA for 1 min and it was rinsed with saline. Blood flow was recorded by using a laser speckle blood flow imager (OMEGAZONE OZ-2, OMEGAWAVE, INC., Tokyo, Japan). tPA (10 mg/kg) or mixture of MHP1-AcN (150 μg/mice) and tPA was started to be administered at 30 min after CCA occlusion.

[11] = medium harvested 24 h after stimulation, ELISA

Molecule: CC[C@H](C)[C@H](NC(=O)[C@H](CO)NC(=O)[C@@H](NC(=O)[C@H](CCCCN)NC(=O)[C@@H](NC(=O)[C@@H](NC(=O)[C@H](Cc1ccc(O)cc1)NC(=O)[C@@H](NC(=O)[C@H](CCSC)NC(=O)[C@H](CC(C)C)NC(C)=O)C(C)C)C(C)C)C(C)C)[C@@H](C)O)C(=O)N[C@@H](CCCCN)C(=O)N[C@H](C(=O)N1CCC[C@H]1C(=O)N[C@@H](CO)C(=O)N[C@@H](CO)C(=O)N[C@@H](Cc1c[nH]cn1)C(=O)N[C@@H](CC(N)=O)C(=O)N[C@@H](CC(C)C)C(=O)N[C@@H](CCSC)C(=O)N[C@@H](CCCCN)C(=O)NCC(=O)NCC(=O)N[C@@H](CO)C(=O)N[C@H](C(=O)N[C@@H](CCCCN)C(=O)N[C@@H](CC(N)=O)C(=O)N[C@@H](Cc1c[nH]c2ccccc12)C(=O)N[C@@H](CO)C(=O)NCC(=O)N[C@@H](CC(N)=O)C(=O)O)[C@@H](C)O)[C@@H](C)CC [MHP1-Ac] (Ac-LMVYVVKTSIKIPSSHNLMKGGSTKNWSGN-OH)
- time post-injection until which peptide was detected in the brain ([1]; brain homogenate, last sampling 2 h): 2 h
- time within which peptide was degraded in plasma ([1]; plasma): ≤ 20 min
- anti-inflammatory effects at 1 µg/ml ([2]; 1 µg/ml peptide): not seen
- dose dependency of anti-inflammatory effects ([2]; 24 h, ELISA): Dose-dependent anti-inflammatory effects were observed
- inhibition of IL-6 expression compared with MHP1 [2, 11]: more effective than MHP1
- inhibition of TNF-α expression compared with MHP1 [2, 11]: more effective than MHP1
- cytotoxicity (LDH assay) [3]: did not increase cytotoxicity
- sedimentation after incubation in 0.45% saline ([4]; 0.45% saline, 37 °C, 24 h, visual, concentration not given): experienced sedimentation
- dissolution in water ([4]; water): easily dissolved in water

Molecule: CC[C@H](C)[C@H](NC(=O)[C@H](CO)NC(=O)[C@@H](NC(=O)[C@H](CCCCN)NC(=O)[C@@H](NC(=O)[C@@H](NC(=O)[C@H](Cc1ccc(O)cc1)NC(=O)[C@@H](NC(=O)[C@H](CCSC)NC(=O)[C@@H](N)CC(C)C)C(C)C)C(C)C)C(C)C)[C@@H](C)O)C(=O)N[C@@H](CCCCN)C(=O)N[C@H](C(=O)N1CCC[C@H]1C(=O)N[C@@H](CO)C(=O)N[C@@H](CO)C(=O)N[C@@H](Cc1c[nH]cn1)C(=O)N[C@@H](CC(N)=O)C(=O)N[C@@H](CC(C)C)C(=O)N[C@@H](CCSC)C(=O)N[C@@H](CCCCN)C(=O)NCC(=O)NCC(=O)N[C@@H](CO)C(=O)N[C@H](C(=O)N[C@@H](CCCCN)C(=O)N[C@@H](CC(N)=O)C(=O)N[C@@H](Cc1c[nH]c2ccccc12)C(=O)N[C@@H](CO)C(=O)NCC(=O)N[C@@H](CC(N)=O)C(=O)O)[C@@H](C)O)[C@@H](C)CC [MHP1] (H-LMVYVVKTSIKIPSSHNLMKGGSTKNWSGN-OH)
- efficacy in tMCAo ([5]; i.v. 150 μL, 2 mg/ml from 6 hrs after tMCAo, then s.c. Alzet pump 200 μL, 2 mg/ml for 24 h): effective
- ischemic injury in tMCAO model ([5]; intracerebroventricularly 4 h, or intravenously 4 or 6 h post-ischemia): reduced
- effect on RANKL-induced osteoclast activation [6]: inhibited RANKL-induced osteoclast activation
- effect on osteoclast activation (peptide alone) [6]: did not affect osteoclast activation
- effect on TLR2, 7, 8-induced inflammations [7]: inhibited
- remaining at 10 min, 200 μg/mL ([8]; 10 min, read-out: residual MHP1 remaining intact in mouse serum): 83 ± 5.9%
- residual MHP1 remaining intact in mouse serum ([8]; 30 min): 50.3 ± 3.6%
- remaining at 0.5 h, 200 μg/mL ([8]; 30 min, read-out: residual MHP1 remaining intact in mouse serum): 50%
- remaining at 1 h, 200 μg/mL ([8]; 60 min, read-out: residual MHP1 remaining intact in mouse serum): 27.5 ± 3.2%
- anti-inflammatory effects after incubation at 37 °C for 24 h [9]: loses its anti-inflammatory effects

Molecule: tPA: tissue plasminogen activator, thrombolytic used in acute ischemic stroke
- time from tPA application to clot lysis (recanalization) [10]: approximately 20 min
